Reference: PubChem BioAssay (NCI)
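Growth conditions: 96-well plates. Treatment: test compound, 48 hours, 5 concentrations. Analysis: linear interpolation between bracketing concentrations; unreached endpoints set to highest concentration. TGI denotes the concentration required for complete inhibition of growth.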

Experiments:
Experiment in all cases: NCI-60 cell line screen, 48 h
[1] = tested on: HCT-116 colon
[2] = tested on: PC-3 prostate
[3] = tested on: NCI-H226 lung
[4] = tested on: KM12 colon
[5] = tested on: NCI-H23 lung
[6] = tested on: SK-OV-3 ovarian
[7] = tested on: RPMI-8226 leukemia
[8] = tested on: OVCAR-8 ovarian
[9] = tested on: TK-10 renal
[10] = tested on: SK-MEL-28 melanoma
[11] = tested on: M14 melanoma
[12] = tested on: HS 578T breast
[13] = tested on: SF-295 CNS
[14] = tested on: SF-539 CNS
[15] = tested on: LOX IMVI melanoma
[16] = tested on: SNB-19 CNS
[17] = tested on: NCI-H522 lung
[18] = tested on: SNB-75 CNS
[19] = tested on: MDA-N
[20] = tested on: NCI-H460 lung
[21] = tested on: HCT-15 colon
[22] = tested on: CCRF-CEM leukemia
[23] = tested on: EKVX NSCLC
[24] = tested on: RXF 393 renal
[25] = tested on: SF-268 CNS
[26] = tested on: COLO 205 colon
[27] = tested on: DU-145 prostate
[28] = tested on: SN12C renal
[29] = tested on: 786-0 renal
[30] = tested on: MDA-MB-435
[31] = tested on: SK-MEL-5 melanoma
[32] = tested on: CAKI-1 renal
[33] = tested on: OVCAR-3 ovarian
[34] = tested on: HOP-62 NSCLC
[35] = tested on: HT29 colon
[36] = tested on: UO-31 renal
[37] = tested on: BT-549 breast
[38] = tested on: U251 CNS
[39] = tested on: HL-60(TB) leukemia
[40] = tested on: MOLT-4 leukemia
[41] = tested on: HCC-2998 colon
[42] = tested on: T-47D breast
[43] = tested on: HOP-92 NSCLC
[44] = tested on: OVCAR-4 ovarian
[45] = tested on: MCF7 breast
[46] = tested on: NCI/ADR-RES ovarian
[47] = tested on: SW-620 colon
[48] = tested on: SK-MEL-2 melanoma
[49] = tested on: MALME-3M melanoma
[50] = tested on: ACHN renal
[51] = tested on: UACC-62 melanoma
[52] = tested on: UACC-257 melanoma
[53] = tested on: OVCAR-5 ovarian
[54] = tested on: K-562 leukemia
[55] = tested on: IGROV1 ovarian
[56] = tested on: A498 renal
[57] = tested on: A549 NSCLC
[58] = tested on: MDA-MB-231 breast
[59] = tested on: SR leukemia

Work on COC(=O)/C=C1/OC(c2ccccc2)=CC1=O yielded a TGI [1] of 33.2 µM, a TGI [2] of 40.2 µM and a TGI [3] of 67.3 µM. For the same compound, the TGI [4] was 32.4 µM, the TGI [5] was 42.9 µM and the TGI [6] was > 94.4 µM. It also gave a TGI [7] of 23.2 µM, a TGI [8] of 35.8 µM and a TGI [9] of 37.2 µM. The TGI [10] was > 58 µM, the TGI [11] was 51.5 µM and the TGI [12] was 65.9 µM. For the same compound, the TGI [13] was 21.8 µM, the TGI [14] was 39.8 µM and the TGI [15] was 30 µM. For the same compound, the TGI [16] was 32 µM, the TGI [17] was 39.3 µM and the TGI [18] was 30.9 µM. It also gave a TGI [19] of 34.1 µM, a TGI [20] of 43.5 µM and a TGI [21] of 30.1 µM. The TGI [22] was > 61.2 µM, the TGI [23] was > 62.2 µM and the TGI [24] was 27.7 µM. It also gave a TGI [25] of 44.7 µM, a TGI [26] of 29.5 µM and a TGI [27] of 19.4 µM. It also gave a TGI [28] of 38.9 µM, a TGI [29] of 27.9 µM and a TGI [30] of 35.5 µM. The TGI [31] was 51.3 µM, the TGI [32] was 33.9 µM and the TGI [33] was 39.4 µM. It also gave a TGI [34] of 44.7 µM, a TGI [35] of 39 µM and a TGI [36] of 31.7 µM. It also gave a TGI [37] of 32 µM, a TGI [38] of 32.1 µM and a TGI [39] of 6.14 µM. It also gave a TGI [40] of 17.3 µM, a TGI [41] of 33.5 µM and a TGI [42] of 49.9 µM. It also gave a TGI [43] of 52.8 µM, a TGI [44] of 31.2 µM and a TGI [45] of 25.4 µM. For the same compound, the TGI [46] was 58.7 µM, the TGI [47] was 32.3 µM and the TGI [48] was 47.9 µM. The TGI [49] was 34.9 µM, the TGI [50] was > 56 µM and the TGI [51] was 40 µM. For the same compound, the TGI [52] was > 52.7 µM, the TGI [53] was 36.9 µM and the TGI [54] was 44.6 µM. The TGI [55] was 33.9 µM, the TGI [56] was 18.7 µM and the TGI [57] was > 82.9 µM. For the same compound, the TGI [58] was 31.4 µM and the TGI [59] was > 60.8 µM.
